Source: ChEMBL document CHEMBL5724914, “Linking interpersonal differences in gut microbiota composition and drug biotransformation activity” (2024)

How the values were obtained:
[1] = human gut metagenome, 24 h, 2 µM
[2] = The drug is tested on WLS-007 corresponding to human gut metagenome with ENA study accession number: PRJEB37062 and ENA sample accession number: ERS12561742 for biotransformation under anaerobic condition. The drug concentrations were measured over 9 timepoints collected between 0 and 24 hours of incubation by liquid-chromatography-coupled mass spectrometry (LC–MS); settings: 2 µM
[3] = human gut metagenome, 24 h, 2 µM; remark: listed apart in the source
[4] = human gut metagenome, 24 h, 2 µM; remark: listed apart in the source
[5] = The drug is tested on Z-027 corresponding to metagenome with ENA study accession number: PRJEB37062 and ENA sample accession number: ERS12561826 for biotransformation under anaerobic condition. The drug concentrations were measured over 9 timepoints collected between 0 and 24 hours of incubation by liquid-chromatography-coupled mass spectrometry (LC–MS); settings: 2 µM
[6] = The drug is tested on Z-013 corresponding to rabbit gut metagenome with ENA study accession number: PRJEB37062 and ENA sample accession number: ERS12561813 for biotransformation under anaerobic condition. The drug concentrations were measured over 9 timepoints collected between 0 and 24 hours of incubation by liquid-chromatography-coupled mass spectrometry (LC–MS); settings: 2 µM
[7] = The drug is tested on Z-002 corresponding to rabbit gut metagenome with ENA study accession number: PRJEB37062 and ENA sample accession number: ERS12561802 for biotransformation under anaerobic condition. The drug concentrations were measured over 9 timepoints collected between 0 and 24 hours of incubation by liquid-chromatography-coupled mass spectrometry (LC–MS); settings: 2 µM
[8] = human gut metagenome, 24 h, 2 µM; remark: listed apart in the source
[9] = human gut metagenome, 24 h, 2 µM; remark: listed apart in the source
[10] = The drug is tested on WLS-038 corresponding to human gut metagenome with ENA study accession number: PRJEB37062 and ENA sample accession number: ERS12561745 for biotransformation under anaerobic condition. The drug concentrations were measured over 9 timepoints collected between 0 and 24 hours of incubation by liquid-chromatography-coupled mass spectrometry (LC–MS); settings: 2 µM
[11] = The drug is tested on Z-007 corresponding to rat gut metagenome with ENA study accession number: PRJEB37062 and ENA sample accession number: ERS12561807 for biotransformation under anaerobic condition. The drug concentrations were measured over 9 timepoints collected between 0 and 24 hours of incubation by liquid-chromatography-coupled mass spectrometry (LC–MS); settings: 2 µM
[12] = The drug is tested on Z-028 corresponding to mouse gut metagenome with ENA study accession number: PRJEB37062 and ENA sample accession number: ERS12561827 for biotransformation under anaerobic condition. The drug concentrations were measured over 9 timepoints collected between 0 and 24 hours of incubation by liquid-chromatography-coupled mass spectrometry (LC–MS); settings: 2 µM
[13] = The drug is tested on Z-022 corresponding to mouse gut metagenome with ENA study accession number: PRJEB37062 and ENA sample accession number: ERS12561821 for biotransformation under anaerobic condition. The drug concentrations were measured over 9 timepoints collected between 0 and 24 hours of incubation by liquid-chromatography-coupled mass spectrometry (LC–MS); settings: 2 µM
[14] = The drug is tested on Z-025 corresponding to rabbit gut metagenome with ENA study accession number: PRJEB37062 and ENA sample accession number: ERS12561824 for biotransformation under anaerobic condition. The drug concentrations were measured over 9 timepoints collected between 0 and 24 hours of incubation by liquid-chromatography-coupled mass spectrometry (LC–MS); settings: 2 µM
[15] = The drug is tested on Z-024 corresponding to pig gut metagenome with ENA study accession number: PRJEB37062 and ENA sample accession number: ERS12561823 for biotransformation under anaerobic condition. The drug concentrations were measured over 9 timepoints collected between 0 and 24 hours of incubation by liquid-chromatography-coupled mass spectrometry (LC–MS); settings: 2 µM
[16] = human gut metagenome, 24 h, 2 µM; remark: listed apart in the source
[17] = human gut metagenome, 24 h, 2 µM; remark: listed apart in the source
[18] = The drug is tested on Z-005 corresponding to metagenome with ENA study accession number: PRJEB37062 and ENA sample accession number: ERS12561805 for biotransformation under anaerobic condition. The drug concentrations were measured over 9 timepoints collected between 0 and 24 hours of incubation by liquid-chromatography-coupled mass spectrometry (LC–MS); settings: 2 µM
[19] = The drug is tested on WLS-027 corresponding to human gut metagenome with ENA study accession number: PRJEB37062 and ENA sample accession number: ERS12561744 for biotransformation under anaerobic condition. The drug concentrations were measured over 9 timepoints collected between 0 and 24 hours of incubation by liquid-chromatography-coupled mass spectrometry (LC–MS); settings: 2 µM
[20] = The drug is tested on WLS-052 corresponding to human gut metagenome with ENA study accession number: PRJEB37062 and ENA sample accession number: ERS12561747 for biotransformation under anaerobic condition. The drug concentrations were measured over 9 timepoints collected between 0 and 24 hours of incubation by liquid-chromatography-coupled mass spectrometry (LC–MS); settings: 2 µM
Note: call rule not given here.

| SMILES | Bacterial Biotransformation [1] | Bacterial Biotransformation [2] | Bacterial Biotransformation [3] | Bacterial Biotransformation [4] | Bacterial Biotransformation [5] | Bacterial Biotransformation [6] | Bacterial Biotransformation [7] | Bacterial Biotransformation [8] | Bacterial Biotransformation [9] | Bacterial Biotransformation [10] | Bacterial Biotransformation [11] | Bacterial Biotransformation [12] | Bacterial Biotransformation [13] | Bacterial Biotransformation [14] | Bacterial Biotransformation [15] | Bacterial Biotransformation [16] | Bacterial Biotransformation [17] | Bacterial Biotransformation [18] | Bacterial Biotransformation [19] | Bacterial Biotransformation [20] |
| --- | --- | --- | --- | --- | --- | --- | --- | --- | --- | --- | --- | --- | --- | --- | --- | --- | --- | --- | --- | --- |
| CN1C(C(=O)Nc2ccccn2)=C(O)c2sccc2S1(=O)=O [TENOXICAM] | Compound NOT metabolized | Compound NOT metabolized | Compound NOT metabolized | Compound NOT metabolized | Compound NOT metabolized | Compound NOT metabolized | Compound NOT metabolized | Compound NOT metabolized | Compound NOT metabolized | Compound NOT metabolized | Compound NOT metabolized | Compound NOT metabolized | Compound metabolized | Compound metabolized | Compound metabolized | Compound NOT metabolized | Compound NOT metabolized | Compound NOT metabolized | Compound NOT metabolized | Compound NOT metabolized |
| O=c1n(CCCN2CCN(c3cccc(Cl)c3)CC2)nc2ccccn12 [TRAZODONE] | Compound NOT metabolized | Compound metabolized | Compound metabolized | Compound metabolized | Compound NOT metabolized | Compound NOT metabolized | Compound metabolized | Compound NOT metabolized | Compound NOT metabolized | Compound NOT metabolized | Compound NOT metabolized | Compound NOT metabolized | Compound metabolized | Compound NOT metabolized | Compound metabolized | Compound metabolized | Compound NOT metabolized | Compound NOT metabolized | Compound metabolized | Compound NOT metabolized |
| OC(CCN1CCCCC1)(c1ccccc1)C1CCCCC1 (stereo not given) [TRIHEXYPHENIDYL] | Compound metabolized | Compound metabolized | Compound metabolized | Compound metabolized | Compound NOT metabolized | Compound NOT metabolized | Compound metabolized | Compound metabolized | Compound NOT metabolized | Compound NOT metabolized | Compound NOT metabolized | Compound NOT metabolized | Compound metabolized | Compound NOT metabolized | Compound metabolized | Compound NOT metabolized | Compound NOT metabolized | Compound metabolized | Compound NOT metabolized | Compound NOT metabolized |
| Cc1ccc(/C(=C\CN2CCCC2)c2ccccn2)cc1 [TRIPROLIDINE] | Compound NOT metabolized | Compound NOT metabolized | Compound NOT metabolized | Compound NOT metabolized | Compound NOT metabolized | Compound NOT metabolized | Compound NOT metabolized | Compound NOT metabolized | Compound NOT metabolized | Compound NOT metabolized | Compound NOT metabolized | Compound NOT metabolized | Compound NOT metabolized | Compound NOT metabolized | Compound NOT metabolized | Compound NOT metabolized | Compound NOT metabolized | Compound NOT metabolized | Compound NOT metabolized | Compound NOT metabolized |
| Cc1cn([C@H]2C[C@H](N=[N+]=[N-])[C@@H](CO)O2)c(=O)[nH]c1=O [ZIDOVUDINE] | Compound NOT metabolized | Compound NOT metabolized | Compound NOT metabolized | Compound NOT metabolized | Compound metabolized | Compound NOT metabolized | Compound metabolized | Compound NOT metabolized | Compound NOT metabolized | Compound NOT metabolized | Compound metabolized | Compound metabolized | Compound metabolized | Compound metabolized | Compound NOT metabolized | Compound metabolized | Compound NOT metabolized | Compound NOT metabolized | Compound NOT metabolized | Compound NOT metabolized |
